Drawing on patent US20050250742A1 (Pfizer Inc., priority 2004, published 2005), this text covers Kd for 15 compounds.

This assay has as its target T1, PIN1-CD (catalytic PIN1 domain, devoid of the PIN1 WW domain) (Homo sapiens, UniProt Q13526).
T1 construct: PIN1 peptide containing the catalytic peptidyl-prolyl isomerase domain but devoid of the PIN1 WW domain
Put plainly: Dissociation constant (Kd) with PIN1 catalytic domain. The assay is classed as binding. Particulars: peptide containing the catalytic PIN1 domain. The source says:
In Table 1, the Ki data reported under the PIN1—CD heading corresponds to testing with PIN1 peptide containing the catalytic peptidyl-prolyl isomerase domain but devoid of the PIN1 WW domain. Similarly, the dissociation constant (Kd) data under PIN1-CD refers to testing with a peptide containing the catalytic PIN1 domain but devoid of the PIN1 WW domain.

T1 sequence (Q13526 52-163 limits assumed): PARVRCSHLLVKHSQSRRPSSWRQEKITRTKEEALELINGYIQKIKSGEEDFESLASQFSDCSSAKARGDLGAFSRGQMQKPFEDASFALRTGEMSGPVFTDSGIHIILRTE

The term Kd denotes the concentration at which binding is half-saturated. Take `O=C(N[C@@H](COP(=O)(O)O)Cc1ccccc1)c1cc2ccccc2[s+]1[O-]` (stereo in doubt) [25-2′, Phosphoric acid mono-(2-{[1-(1-oxo-benzo[b]thiophen-2-yl)-methanoyl]-amino}-3-phenyl-propyl)ester]: the Kd is under 1000 nM.

For the compound `O=C(Nc1ccccc1Oc1ccccc1)N[C@@H](COP(=O)(O)O)Cc1ccccc1` [Example 23b, Phosphoric acid mono-{2-[3-(2-phenoxy-phenyl)-ureido]-3-phenyl-propyl}ester], the Kd was under 1000 nM.

Take `COc1cc(C)cc(NC(=O)N[C@@H](COP(=O)(O)O)Cc2ccccc2)c1` [Example 23c, Phosphoric acid mono-{2-[3-(3-methoxy-5-methyl-phenyl)-ureido]-3-phenyl-propyl}ester]: the Kd is under 1000 nM.

In turn, `COc1cc(NC(=O)N[C@@H](COP(=O)(O)O)Cc2ccccc2)cc(OC)c1` [Example 23d, Phosphoric acid mono-{2-[3-(3,5dimethoxy-phenyl)-ureido]-3-phenyl-propyl}ester] displayed a Kd of under 1000 nM.

As to `O=C(N[C@@H](COP(=O)(O)O)Cc1ccccc1)c1ccc(Oc2cc(Cl)cc(Cl)c2)o1` [Example 25-4, Phosphoric acid mono-[2-({1-[5-(3,5-dichloro-phenoxy)-furan-2-yl]-methanoyl}-amino)-3-phenyl-propyl]ester], the Kd was under 1000 nM.

Compound `O=C(N[C@@H](COP(=O)(O)O)Cc1ccccc1)c1ccc(Cl)c(Cl)c1` [Example 25-5, Phosphoric acid mono-(2-{[1-(3,4-dichloro-phenyl)-methanoyl]amino}-3-phenyl-propyl)ester] had a Kd of under 1000 nM.

Regarding `COc1c(C(=O)N[C@@H](COP(=O)(O)O)Cc2ccccc2)csc1Cl` [Example 25-6, Phosphoric acid mono-(2{[1-(5-chloro-4-methoxy-thiophen-3-yl)-methanoyl]-amino}-3-phenyl-propyl)ester], the Kd was under 1000 nM.

Take `Cc1nn(-c2ccccc2)nc1C(=O)N[C@@H](COP(=O)(O)O)Cc1ccccc1` [Example 25-7, Phosphoric acid mono-(2-{[1-(5-methyl-2-phenyl-2H-[1,2,3]triazol-4-yl)-methanoyl]-amino}-3-phenyl-propyl)ester]: the Kd is under 1000 nM.

Compound `O=C(N[C@@H](COP(=O)(O)O)Cc1ccccc1)c1cccc2ccccc12` [Example 25-10, Phosphoric acid mono-{2-[(1-naphthalen-1-yl-methanoyl)-amino]-3-phenyl-propyl}ester] registered a Kd of under 1000 nM.

For the compound `O=C(N[C@@H](COP(=O)(O)O)Cc1ccccc1)c1cnc2ccccc2n1` [Example 25-11, Phosphoric acid mono-{3-phenyl-2-[(1-quinoxalin-2-yl-methanoyl)-amino]-propyl}ester], the Kd was under 1000 nM.

Consider `O=C(N[C@@H](COP(=O)(O)O)Cc1ccccc1)c1sccc1Cl` [Example 25-12], for which the Kd is under 1000 nM.

As to `O=C(N[C@@H](COP(=O)(O)O)Cc1ccccc1)c1ccccc1O` [Example 25-13, Phosphoric acid mono-(2-{[1-(2-hydroxy-phenyl)-methanoyl]-amino}-3-phenyl-propyl)ester], the Kd was under 10000 nM.

As for `O=C(N[C@@H](COP(=O)(O)O)Cc1ccccc1)c1ccco1` [Example 25-14, Phosphoric acid mono-{2-[(1-furan-2-yl-methanoyl)-amino]-3-phenyl-propyl}ester], the Kd is under 10000 nM.

In the case of `O=C(N[C@@H](COP(=O)(O)O)Cc1ccccc1)c1cc2ccccc2[nH]1` [Example 25-18, Phosphoric acid mono-{2-[(1-1H-indol-2-yl-methanoyl)-amino]-3-phenyl-propyl}ester], the Kd is under 1000 nM.

As for `O=C(N[C@@H](COP(=O)(O)O)Cc1ccccc1)c1cc2ccccc2o1` [Example 25-19, Phosphoric acid mono-{2-[(1-benzofuran-2-yl-methanoyl)-amino]-3-phenyl-propyl}ester], the Kd was under 1000 nM.
